Measured values reported in patent US20070128270A1.
Converted amounts (≈) assume the structure as drawn.

What was measured:
[1] = Accelerated stability of capsules, HPLC potency and impurities; format: physicochemical; conditions: Initial
Procedure: The accelerated stability of the capsules of Examples 1 and 2 was studied. The capsules were packaged in HDPE bottles and stored at 40° C./75% RH and under ICH option 2 light condition. The samples were assayed by HPLC for potency and impurities and by dissolution apparatus. […] No change in dissolution was also observed under all conditions.

[2] = physchem; format: physicochemical
From the text: In fact, according to a preferred embodiment, the at least one surfactant is a blend of surfactants, more preferably a blend of sodium lauryl sulfate and polysorbate 80 (Tween 80). In a particularly preferred embodiment, the pharmaceutically acceptable additives further comprise at least one solubilizer. Preferably the solubilizer is povidone.

Impurity (%) RRT: 1.06 [1]: <0.05% | Impurity (%) RRT: 1.45 [1]: 0.13% | Impurity (%) RRT: 1.79 [1]: 0.05% | Impurity (%) RRT: 1.84 [1]: 0.07% | Strength (%) [1]: 99.2% | solubility in aqueous medium at gastrointestinal pHs [2]: insoluble | solubility ([2]; Solubility): 20 µg/mL (≈ 44.8 µM)
Structure (SMILES): CNC(=O)c1c(-c2ccc(F)cc2)oc2cc(N(CCO)S(C)(=O)=O)c(C3CC3)cc12
